How the values were obtained:
Type in all cases: in vivo
Settings in all cases: evaluated after 13 days
[1] = tested on: Amaranthus retoflexus (AMARE); experiment: Pre-emergence Test, Amaranthus retoflexus (AMARE)
[2] = tested on: Amaranthus palmeri (AMAPA); experiment: Pre-emergence Test, Amaranthus palmeri (AMAPA)
[3] = tested on: Amaranthus retoflexus (AMARE); experiment: Post-emergence Test, Amaranthus retoflexus (AMARE); set-up: key to percentage damage caused to the plant, AMARE (five-point scale): 5=81-100%, 4=61-80%, 3=41-60%, 2=21-40%, 1=0-20% damage
How it was run: (§1)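 Pots sprayed with compound in acetone/water (50:50) with 0.5% Tween 20, at 1000 g/ha unless noted, glasshouse 24/16 °C, 14 h light, 65% humidity. Damage scored 13 days after spraying on a five-point scale (5=81-100% to 1=0-20%).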

[4] = tested on: Echinochloa crus-galli (ECHCG); experiment: Pre-emergence Test, Echinochloa crus-galli (ECHCG)
[5] = tested on: Amaranthus palmeri (AMAPA); experiment: Post-emergence Test, Amaranthus palmeri (AMAPA); set-up: key: 5=81-100%, 4=61-80%, 3=41-60%, 2=21-40%, 1=0-20% damage
How it was run: as §1

Setaria faberi (SETFA) [6] = experiment: Pre-emergence Test, Setaria faberi (SETFA)
Zea mays (ZEAMX) [7] = experiment: Post-emergence Test, Zea mays (ZEAMX); set-up: key to percentage damage caused to the plant, ZEAMX (five-point scale): 5=81-100%, 4=61-80%, 3=41-60%, 2=21-40%, 1=0-20% damage
How it was run: as §1

Zea mays (ZEAMX) [8] = experiment: Pre-emergence Test, Zea mays (ZEAMX)
[9] = tested on: Ipomoea hederacea (IPOHE); experiment: Pre-emergence Test, Ipomoea hederacea (IPOHE)
[10] = tested on: Ipomoea hederacea (IPOHE); experiment: Post-emergence Test, Ipomoea hederacea (IPOHE); set-up: key to percentage damage caused to the plant, IPOHE (five-point scale): 5=81-100%, 4=61-80%, 3=41-60%, 2=21-40%, 1=0-20% damage
How it was run: as §1

Setaria faberi (SETFA) [11] = experiment: Post-emergence Test, Setaria faberi (SETFA); set-up: key to percentage damage caused to the plant, SETFA (five-point scale): 5=81-100%, 4=61-80%, 3=41-60%, 2=21-40%, 1=0-20% damage
How it was run: as §1

[12] = tested on: Echinochloa crus-galli (ECHCG); experiment: Post-emergence Test, Echinochloa crus-galli (ECHCG); set-up: key to percentage damage caused to the plant, ECHCG (five-point scale): 5=81-100%, 4=61-80%, 3=41-60%, 2=21-40%, 1=0-20% damage
How it was run: as §1

Row | SMILES | Pre-emergence Test AMARE, percentage damage caused to the plant (five-point scale) ([1]; 1000 g/ha) | Pre-emergence Test AMAPA, percentage damage caused to the plant (five-point scale) ([2]; 1000 g/ha) | percentage damage caused to the plant, AMARE (five-point scale) ([3]; 250 g/Ha) | percentage damage caused to the plant, AMARE (five-point scale) ([3]; 1000 g/ha) | Pre-emergence Test ECHCG, percentage damage caused to the plant (five-point scale) ([4]; 1000 g/ha) | percentage damage caused to the plant, AMAPA (five-point scale) ([5]; 250 g/Ha) | Pre-emergence Test SETFA, percentage damage caused to the plant (five-point scale) (Setaria faberi (SETFA) [6]; 1000 g/ha) | percentage damage caused to the plant, ZEAMX (five-point scale) (Zea mays (ZEAMX) [7]; 250 g/Ha) | percentage damage caused to the plant, ZEAMX (five-point scale) (Zea mays (ZEAMX) [7]; 1000 g/ha) | Pre-emergence Test ZEAMX, percentage damage caused to the plant (five-point scale) (Zea mays (ZEAMX) [8]; 1000 g/ha) | Pre-emergence Test IPOHE, percentage damage caused to the plant (five-point scale) ([9]; 1000 g/ha) | percentage damage caused to the plant, IPOHE (five-point scale) ([10]; 250 g/Ha) | percentage damage caused to the plant, IPOHE (five-point scale) ([10]; 1000 g/ha) | percentage damage caused to the plant, SETFA (five-point scale) (Setaria faberi (SETFA) [11]; 250 g/Ha) | percentage damage caused to the plant, SETFA (five-point scale) (Setaria faberi (SETFA) [11]; 1000 g/ha) | percentage damage caused to the plant, ECHCG (five-point scale) ([12]; 250 g/Ha) | percentage damage caused to the plant, ECHCG (five-point scale) ([12]; 1000 g/ha) | Pre-emergence Test AMARE, percentage damage caused to the plant (five-point scale) ([1]; 250 g/Ha (*)) | Pre-emergence Test AMAPA, percentage damage caused to the plant (five-point scale) ([2]; 250 g/Ha (*)) | Pre-emergence Test ECHCG, percentage damage caused to the plant (five-point scale) ([4]; 250 g/Ha (*)) | further results
1 | CCOC(=O)c1nn(Cc2cc(=O)c(C(=O)O)c(-c3ccc(Cl)c(Cl)c3)n2CC)cc1C [Compound 123, 2-(3,4-dichlorophenyl)-6-[(3-ethoxycarbonyl-4-methyl-pyrazol-1-yl)methyl]-1-ethyl-4-oxo-pyridine-3-carboxylic acid] | 0 | 1 (1=0-20%) | 0 | 1 (1=0-20%) | 0 | 0 | 1 (1=0-20%) | 0 | 1 (1=0-20%) | 0 | 0 | 0 | 2 (2=21-40%) | 0 | 1 (1=0-20%) | 2 (2=21-40%) | 1 (1=0-20%) | – | – | – | –
2 | CCn1c(Cn2ncnc2OC)cc(=O)c(C(=O)O)c1-c1ccc(Cl)c(Cl)c1 [Compound 124, 2-(3,4-dichlorophenyl)-1-ethyl-6-[(5-methoxy-1,2,4-triazol-1-yl)methyl]-4-oxo-pyridine-3-carboxylic acid] | – | – | 1 (1=0-20%) | – | – | 0 | – | 1 (1=0-20%) | – | – | – | 0 | – | 2 (2=21-40%) | – | 4 (4=61-80%) | – | 1 (1=0-20%) | 1 (1=0-20%) | 0 | Pre-emergence Test SETFA, percentage damage caused to the plant (five-point scale) (Setaria faberi (SETFA) [6]; 250 g/Ha (*)): 0; Pre-emergence Test ZEAMX, percentage damage caused to the plant (five-point scale) (Zea mays (ZEAMX) [8]; 250 g/Ha (*)): 0; Pre-emergence Test IPOHE, percentage damage caused to the plant (five-point scale) ([9]; 250 g/Ha (*)): 0
3 | CCn1c(Cn2cnc3ncccc32)cc(=O)c(C(=O)O)c1-c1ccc(Cl)c(Cl)c1 [Compound 125, 2-(3,4-dichlorophenyl)-1-ethyl-6-(imidazo[4,5-b]pyridin-1-ylmethyl)-4-oxo-pyridine-3-carboxylic acid] | – | – | 1 (1=0-20%) | – | – | 0 | – | 1 (1=0-20%) | – | – | – | 1 (1=0-20%) | – | 1 (1=0-20%) | – | 1 (1=0-20%) | – | 0 | 1 (1=0-20%) | 0 | Pre-emergence Test SETFA, percentage damage caused to the plant (five-point scale) (Setaria faberi (SETFA) [6]; 250 g/Ha (*)): 1 (1=0-20%); Pre-emergence Test ZEAMX, percentage damage caused to the plant (five-point scale) (Zea mays (ZEAMX) [8]; 250 g/Ha (*)): 0; Pre-emergence Test IPOHE, percentage damage caused to the plant (five-point scale) ([9]; 250 g/Ha (*)): 0
4 | CCn1c(Cn2nc(C)cc2OC)cc(=O)c(C(=O)O)c1-c1ccc(Cl)c(Cl)c1 [Compound 127, 2-(3,4-dichlorophenyl)-1-ethyl-6-[(5-methoxy-3-methyl-pyrazol-1-yl)methyl]-4-oxo-pyridine-3-carboxylic acid] | 2 (2=21-40%) | 1 (1=0-20%) | 0 | 2 (2=21-40%) | 3 (3=41-60%) | 0 | 5 (5=81-100%) | 1 (1=0-20%) | 3 (3=41-60%) | 4 (4=61-80%) | 2 (2=21-40%) | 1 (1=0-20%) | 3 (3=41-60%) | 3 (3=41-60%) | 3 (3=41-60%) | 2 (2=21-40%) | 4 (4=61-80%) | 1 (1=0-20%) | 1 (1=0-20%) | 1 (1=0-20%) | percentage damage caused to the plant, AMAPA (five-point scale) ([5]; 1000 g/ha): 3 (3=41-60%); Pre-emergence Test SETFA, percentage damage caused to the plant (five-point scale) (Setaria faberi (SETFA) [6]; 250 g/Ha (*)): 3 (3=41-60%); Pre-emergence Test ZEAMX, percentage damage caused to the plant (five-point scale) (Zea mays (ZEAMX) [8]; 250 g/Ha (*)): 0; Pre-emergence Test IPOHE, percentage damage caused to the plant (five-point scale) ([9]; 250 g/Ha (*)): 0
5 | CCn1c(Cn2ccc(C(F)(F)F)n2)cc(=O)c(C(=O)O)c1-c1ccc(Cl)c(C#N)c1 [Compound 128, 2-(4-chloro-3-cyano-phenyl)-1-ethyl-4-oxo-6-[[3-(trifluoromethyl)pyrazol-1-yl]methyl]pyridine-3-carboxylic acid] | 1 (1=0-20%) | 1 (1=0-20%) | 0 | 1 (1=0-20%) | 1 (1=0-20%) | 0 | 3 (3=41-60%) | 0 | 1 (1=0-20%) | 0 | 1 (1=0-20%) | 1 (1=0-20%) | 1 (1=0-20%) | 0 | 3 (3=41-60%) | 1 (1=0-20%) | 4 (4=61-80%) | – | – | – | percentage damage caused to the plant, AMAPA (five-point scale) ([5]; 1000 g/ha): 1 (1=0-20%)
6 | CCn1c(Cn2ccc(Cl)n2)cc(=O)c(C(=O)O)c1-c1ccc(S(C)(=O)=O)c(Cl)c1 [Compound 130, 2-(3-chloro-4-methylsulfonyl-phenyl)-6-[(3-chloropyrazol-1-yl)methyl]-1-ethyl-4-oxo-pyridine-3-carboxylic acid] | 1 (1=0-20%) | 1 (1=0-20%) | – | 1 (1=0-20%) | 0 | – | 0 | – | 0 | 0 | 0 | – | 1 (1=0-20%) | – | 1 (1=0-20%) | – | 0 | – | – | – | percentage damage caused to the plant, AMAPA (five-point scale) ([5]; 1000 g/ha): 2 (2=21-40%)
